Assay results as given in PMC5603865, “Synthesis, In-Vitro Activity and Metabolic Properties of Quinocetone and Structurally Similar Compounds” (Iranian Journal of Pharmaceutical Research : IJPR, 2017).
Converted amounts (≈) assume the structure as drawn. Like-named read-outs stand apart in the source and are kept apart here.

Assays:
Aeromonas hydrophila [1] = experiment: In-vitro antibacterial activity, MIC by broth dilution; format: cell-based; conditions: Aeromonas hydrophila, 24 h, read-out: MIC values Aeromonas hydrophila
Method: (§1) All test compounds were dissolved in dimethyl sulfoxide (DMSO, Sigma, USA) and then diluted in Dulbecco’s modified Eagle’s medium (DMEM, Gibco, USA) at desired concentrations for cell proliferation analyses or diluted in nutrient broth medium for antimicrobial susceptibility testing respectively. The final concentration of DMSO in the DMEM culture medium was under 0.1% (v:v).
(§2) The preliminary antibacterial activities were obtained for selected compounds against various bacteria, namely: Staphyloccocus aureus ATCC25923 (Gram-positive bacteria), Clostridium perfringen CVCC52,8604 (anaerobes bacteria), Salmonella pullorum (Gram-negative bacteria), Escherichia coli ATCC25922 (Gram negative bacteria) and Aeromonas hydrophila (Gram-negative bacteria) were used in the study. Each strain was cultured in appropriate broth medium. Clostridium perfringen was incubated in an anaerobic chamber. The minimum inhibitory concentration (MIC) for each test compound was estimated using the broth dilution method. The MIC’s was determined for each strain/compound pairs that presented antimicrobial activity. The method was modified from Mohapatra›s methods ([14], [15]). Cell suspensions were prepared in 2 mL of liquid medium with concentrations of various tests of compounds in 15 mL culture tubes by inoculation with 100 μL of 10^6 cfu/mL from each stock. The cultures were incubated at 28 °C or 37 °C for 24 h. Tubes showing no visible turbidity represented the MIC, and subsequently, were inoculated on the right side of the 9cm sterile nutrient agar plates without various test compounds and incubated for 24 h (Clostridium perfringen was incubated in an anaerobic chamber.). The least concentration, at which no growth was observed, represented the minimum bactericidal concentration (MBC) ([16]).

[2] = system: Escherichia coli ATCC25922; experiment: as above; format: cell-based; conditions: Escherichia coli, read-out: MIC values Escherichia coli ATCC25922
Method: as §1, §2

Salmonella pullorum = experiment: as above; format: cell-based; conditions: Salmonella enterica, PULLORUM, 24 h
Method: as §1, §2

[3] = system: Staphyloccocus aureus ATCC25923; experiment: as above; format: cell-based; conditions: broth dilution, 24 h; read-out: MIC values Staphyloccocus aureus ATCC25923
Method: as §1, §2

[4] = system: Clostridium perfringen CVCC52,8604; experiment: In-vitro antibacterial activity, MIC by broth dilution (anaerobic chamber); format: cell-based; conditions: Clostridium, 24 h
Method: as §1, §2

HepG2 cells [5] = experiment: In-vitro cytotoxicity, MTT cell proliferation assay; format: cell-based, human; conditions: 24 h incubation, concentration reducing viable cells by 50%
Method: as §1
(§3) HepG2 and normal human Chang liver cells were obtained from the Institute of Biochemistry and Cell Biology, Shanghai Institutes for Biological Sciences, Chinese Academy of Sciences (Shanghai, China). HepG2 and normal human Chang liver cells were cultured at 37˚Cwith 5% CO2 in DMEM supplemented with 2% L-glutamine, 10% fetal bovine serum (Gibco, USA), 100 U/mL penicillin and 100 […] (Gibco, USA).
(§4) The methodology for evaluating the cytotoxicity inhibitory activity of various test compounds towards cell proliferation has been described previously ([11], [17]). Cell proliferation inhibitory analyses were carried out using the 3-(4,5-dimethylthiazole-2-yl)-2,5-diphenyl tetrazolium bromide (MTT, Sigma, USA) assay. Briefly, cancers HepG2 and normal human Chang liver cells were harvested and resuspended in fresh growth medium. A 100 μL cell suspension (5 × 10^4 cells/mL) was aliquoted into each well of a 96-well culture plate. After 12 h incubation, the medium was replaced with fresh medium containing various concentrations of test compounds. The cells were then incubated for another 24 h. At the end of exposure, 10 μL of MTT solution (5 mg/mL) was added, and the cells were incubated for 4 h at 37 °C. The cells were treated with 100 μL DMSO, and absorbance was recorded at 570 nm using a microplate ELISA reader (ELX800, Bio-Tek, USA). All experiments were performed at least thrice, and data were presented as the mean of sixplicate wells ± standard deviation (SD). Cell inhibition was calculated as follows:
(§5) (OD of control group − OD of experimental group) / (OD of control group − OD of blank group) ×100%. The IC50 value for a compound was calculated using SPSS.

[6] = system: normal human Chang liver cells; experiment: as above; format: cell-based; conditions: 24 h incubation, concentration reducing viable cells by 50%
Method: as §1, §3, §4, §5

[7] = system: Gram-positive and Gram-negative bacteria; experiment: Antibacterial activity class based on the MIC results; format: cell-based
Method: as §2
In this study, activity of quinoxaline-1, 4-dioxides and their deoxygenations was tested against selected Gram-negative bacteria (Escherichia coli, Salmonella pullorum and Aeromonas hydrophila), Gram-positive bacteria (Staphyloccocus aureus and Clostridium perfringen). The in-vitro antibacterial activity was based on the MIC results: Strong antibacterial activity, if MIC is less than 50 μg/mL; Moderate, if MIC is in between 50 and 250 μg/mL; No activity, if MIC is more than 500 μg/mL.

HepG2 cells [8] = experiment: Identification of metabolic pathways in HepG2 cells by LC-MS/MS; format: in vitro ADME, human; conditions: HepG2 cells incubated for 24 h
Method: For recognition of the metabolic characteristics of quinocetone (3a), deoxyquinocetone (5a), olaquindox, 3-methyl-2-(3-fura-2-propenoyl)-quinoxaline -1,4-dioxide 6, and 3-methyl -2-quinoxaline-2-carboxylate-1,4-dioxide 8, HepG2 cells were seeded at 6× 10^4 cells/ml density in 24-well plates. After 24 h incubation, the medium was replaced with fresh medium containing various concentrations ([…]) of test compounds. After 24 h incubation, the medium was collected and extracted with ethyl acetate then centrifuged at […] for 20min at 4 °C. The organic supernatant was evaporated under nitrogen atmosphere at 40 °C, the residue was dissolved in 200μL acetonitrile. The aliquot was filtered by a 0.22 μM membrane then analyzed. The blank is conducted in the absence of pharmaceuticals.
All experiments were performed with a Waters Alliance 2695 LC system (Waters) and a quattro micro API quadruple mass spectrometer (Micromass, Manchester, UK) equipped with an electro-spray ion source (ESI).
LC analysis was carried out on an XTerra C18 HPLC column (2.1 mm×100 mm, 3.5 μM) (Waters, Milford, MA, USA) equipped with a guard column (XTerra C18 2.1 mm×100 mm, 3.5μM) (Waters, Milford, MA, USA). […]
The MS instrument was used for analysis operating in a positive ion mode. […] The spectra was recorded in the range m/z 50~500 for full scan MS analysis. […]

[9] = system: HepG2, Vero, L-02 and Chang liver cell lines; design: method as in PMID 19061932, PMID 22840332; conditions: in-vitro, ref [7],[11]; cited from earlier work
Aeromonas hydrophila [10] = experiment: Minimum bactericidal concentration (MBC), subculture on nutrient agar; format: cell-based; conditions: least concentration with no growth on agar plates, 24 h
Method: as §2, with “The least concentration, at which no growth was observed, represented the minimum bactericidal concentration (MBC) ([16]).” left out

[11] = ATCC25922, broth dilution, 24 h
[12] = Homo sapiens, Chang liver, 24 h

SMILES	MIC (Aeromonas hydrophila [1]; broth dilution)	MIC [2, 11]	MIC (Salmonella pullorum)	MIC [3]	MIC [4]	IC50 (HepG2 cells [5])	IC50 (HepG2 cells [5]; Homo sapiens, HepG2, 24 h)	IC50 [6]	IC50 [6, 12]	antibacterial activity against Gram-positive and Gram-negative bacteria [7]	categories of metabolites in HepG2 cells (HepG2 cells [8])	growth inhibitory effects [9]	MIC ([2]; ATCC25922, 24 h)	MIC (Aeromonas hydrophila [1])	melting point	MBC (Aeromonas hydrophila [10])
Cc1c(C(=O)C=Cc2ccccc2)[n+]([O-])c2ccccc2[n+]1[O-] [Compound 3a, 3-Methyl-2-(3-phenyl-2-propenoyl)-quinoxaline-1,4-dioxide, reference compound]	49 µg/mL (≈ 160 µM)	97.9 µg/mL (≈ 320 µM)	49 µg/mL (≈ 160 µM)	24.5 µg/mL (≈ 79.9 µM)	196 µg/mL (≈ 639 µM)	49.3 ± 1.94 µM	49 µM	63.3 ± 5.55 µM	63 µM	strong or moderate activity	reduction, hydroxylation, and a combination of reduction and hydroxylation	significant growth inhibitory effects	–	–	–	–
CCOC(=O)c1c(C)[n+]([O-])c2ccccc2[n+]1[O-] [Compound 8, 3-methyl-2-quinoxaline-2-carboxylate-1,4-dioxide]	39.7 µg/mL (≈ 160 µM)	–	19.8 µg/mL (≈ 79.9 µM)	39.7 µg/mL (≈ 160 µM)	4.96 µg/mL (≈ 20 µM)	–	217 ± 3.48 µM	–	217 ± 3.52 µM	strong or moderate activity	–	–	4.96 µg/mL (≈ 20 µM)	–	–	–
CCOC(=O)c1nc2ccccc2nc1C [Compound 9, 3-methyl-2-quinoxaline-2-carboxylate]	138 µg/mL (≈ 639 µM)	> 500 µg/mL	> 500 µg/mL	> 500 µg/mL	> 500 µg/mL	–	547 ± 7.71 µM	–	610 ± 18.4 µM	little or no activity	–	–	–	–	–	–
Cc1c[n+]([O-])c2ccccc2[n+]1[O-] [Compound 11, 3-methyl-quinoxaline-1,4-dioxide]	–	56.3 µg/mL (≈ 320 µM)	451 µg/mL (≈ 2560 µM)	451 µg/mL (≈ 2560 µM)	225 µg/mL (≈ 1280 µM)	–	465 ± 28.8 µM	–	452 ± 6.86 µM	little or no activity	–	–	–	225 µg/mL (≈ 1280 µM)	173.5 to 176.8 °C	–
Cc1c(C(=O)NCCO)[n+]([O-])c2ccccc2[n+]1[O-] [olaquindox, n-(2-hydroxyethyl)-3-methyl-2-quinoxalinecarboxamide 1,4-dioxide, reference compound]	21 µg/mL (≈ 79.9 µM)	21 µg/mL (≈ 79.9 µM)	84.2 µg/mL (≈ 320 µM)	42.1 µg/mL (≈ 160 µM)	67.3 µg/mL (≈ 256 µM)	–	893 ± 14.7 µM	–	815 ± 31.2 µM	strong or moderate activity	–	much lower than quinocetone	–	–	–	84.2 µg/mL (≈ 320 µM)
